Source: publication PMC8949187, “Study of Structure–Activity Relationships of the Marine Alkaloid Fascaplysin and Its Derivatives as Potent Anticancer Agents” (Marine Drugs, 2022)

Assays:
[1] = test system: PC-3 cells; assay: MTT assay, PC-3 cells; type: cell-based, human; conditions: Homo sapiens, PC-3; prostate cancer cells; 48 h of treatment; mean ± SD
Description: (§1) The human prostate cancer cell lines PC-3, DU145, 22Rv1 and LNCaP, as well as human prostate non-cancer cell line PNT2 were purchased from ATCC (Manassas, VA, USA). HEK 293T (human embryonic kidney cells) and MRC-9 (human fibroblast cells) cell lines were purchased from ECACC (Salisbury, UK). […] Authentication of all cell lines used was recently performed by a commercial service (Multiplexion GmbH, Heidelberg, Germany).
(§2) Cells were cultured as monolayers at 37 °C in a humidified atmosphere with 5% (v/v) CO2 in the correspondent culture medium: 10% FBS/RPMI medium (RPMI medium supplemented with Glutamax^TM-I (gibco® Life technologies^TM, Paisley, UK) containing 10% fetal bovine serum (FBS, gibco® Life technologies^TM) and 1% penicillin/streptomycin (Invitrogen)) for PNT2, LNCaP, 22Rv1, PC-3 and DU145 and cells; 10% FBS/DMEM medium (DMEM medium supplemented with Glutamax^TM-I (gibco® Life technologies^TM) containing 10% FBS and 1% penicillin/streptomycin (gibco® Life technologies^TM)) for MRC-9 and HEK 293 cells. Cells were continuously kept in culture for a maximum of 3 months, and were regularly checked for stable phenotype and mycoplasma infection.
(§3) Effect of the drugs on cell viability in terms of metabolic activity was assessed by MTT assay, as previously reported. Cells were pre-incubated overnight in 96-well plates (6 × 10^3 cells/well in 100 μL/well) in the correspondent culture media. Then, the medium was replaced with fresh 10% FBS/RPMI medium containing the investigated compounds (100 μL/well), and cells were incubated for 48 h, unless otherwise stated. Next, 10 μL/well of (3-(4,5-dimethylthiazol-2-yl)-2,5-diphenyltetrazolium bromide) reagent (MTT, 5 mg/mL) was added. After 2–4 h of incubation, the media was aspirated and the plates were dried. Then, 50 μL/well of DMSO was added to each well and the cell viability was measured using an Infinite F200PRO reader (TECAN, Männedorf, Switzerland). Results were calculated using the GraphPad Prism software v.9.1.1 (GraphPad Software, San Diego, CA, USA) and are represented as IC50 of the compounds calculated using the cells treated with the solvent alone as a control.

[2] = test system: 22Rv1 cells; assay: MTT assay, 22Rv1 cells; type: cell-based, human; conditions: Homo sapiens, 22Rv1; prostate cancer cells; 48 h of treatment; mean ± SD
Description: as §1, §2, §3

[3] = test system: DU145 cells; assay: MTT assay, DU145 cells; type: cell-based, human; conditions: Homo sapiens, DU-145; prostate cancer cells; 48 h of treatment; mean ± SD
Description: as §1, §2, §3

[4] = test system: LNCaP cells; assay: MTT assay, LNCaP cells; type: cell-based, human; conditions: Homo sapiens, LNCaP; prostate cancer cells; 48 h of treatment; mean ± SD
Description: as §1, §2, §3

[5] = test system: PNT2 cells; assay: MTT assay, PNT2 cells; type: cell-based, human; conditions: Homo sapiens, PNT2; non-cancer cells; 48 h of treatment; mean ± SD
Description: as §1, §2, §3

[6] = test system: MRC-9 cells; assay: MTT assay, MRC-9 cells; type: cell-based, human; conditions: Homo sapiens, MRC9; non-cancer cells; 48 h of treatment; mean ± SD
Description: as §1, §2, §3

[7] = test system: HEK-293 cells; assay: MTT assay, HEK-293 cells; type: cell-based, human; conditions: Homo sapiens, HEK293; non-cancer cells; 48 h of treatment; mean ± SD
Description: as §1, §2, §3

[8] = test system: 22Rv1 cells; assay: Trypan blue-based viability assay; type: cell-based, human; conditions: Homo sapiens, 48 h of treatment, mean ± SD, read-out: IC50, trypan blue staining assay
Description: The effect of the drugs on cell viability in terms of cellular membrane integrity was evaluated by the trypan blue exclusion assay as described before. In brief, cells (0.2 × 10^6 cells/well) were seeded in 6-well plates and incubated overnight, and the media was replaced with fresh media (1 mL/well) containing drugs at indicated concentrations. After treatment for 48 h, the cells were harvested by trypsinization, stained with trypan blue and the viability was measured using an automatic Beckman Coulter Vi-CELL (Beckman Coulter, Krefeld, Germany). Trypan blue-positive cells were assumed to have damaged cellular membrane (i.e., dead), whereas trypan blue-negative cells were considered to have an intact cellular membrane (i.e., alive).

[9] = test system: 22Rv1 cells; assay: Cell cycle progression, flow cytometry with PI staining; type: cell-based, human; conditions: treated at IC50 (MTT assay) for 48 h
Description: (§4) The effects on cell cycle progression and DNA fragmentation were analyzed by flow cytometry using PI staining, as described before. Cells (2 × 10^5 cells/well) were pre-incubated overnight in 6-well plates and then treated with the investigated drugs in fresh culture media (2 mL/well) for 48 h. Cells were harvested by trypsinization, fixed in 70% EtOH, stained with PI solution and analyzed by FACS Calibur (BD Bioscience, San Jose, CA, USA). The results were quantified using BD Bioscience Cell Quest Pro v.5.2.1. software (BD Bioscience). The cells appearing as a sub-G1 population (containing fragmented DNA) were considered to be apoptotic.

[10] = test system: 22Rv1 cells; assay: DNA fragmentation (apoptosis, sub-G1), flow cytometry with PI staining; type: cell-based, human; conditions: treated at IC50 (MTT assay) for 48 h, mean ± SD
Description: as §4

[11] = test system: prostate cancer cell lines (PC-3, 22Rv1, DU145 and LNCaP); assay: MTT assay, mean over four prostate cancer cell lines; type: cell-based; conditions: Homo sapiens; mean of MTT IC50 in PC-3, 22Rv1, DU145 and LNCaP; from Table S1 values; read-out: mean IC50 in cancer cells
Description: as §3, with “Next, SAR analysis was performed to identify the structural elements that are beneficial for anticancer activity of the fascaplysin-related molecules. Considering the complex and heterogeneous nature of tumors even within the same patient, we used calculated mean IC50 values of each drug in all prostate cancer cells for further analysis (Figure 2A). To identify the drug candidates with the highest therapeutic potential, the selectivity index (SI) was calculated as mean IC50 in non-cancer cells versus mean IC50 in cancer cells (Figure 2B), or as a mean IC50 in non-cancer (MRC-9 and HEK293) cells versus mean IC50 in prostate cells (cancer PC-3, 22Rv1, DU145, LNCaP and non-cancer PNT2 cells) (Figure 2C). Finally, to estimate the effects on cellular metabolism, we compared the activity evaluated by using trypan blue assay versus MTT assay (Figure 2D). Effect” for “Effect”, “2-4” for “2–4”, “F200PRO” left out

[12] = test system: non-cancer cell lines versus cancer cell lines; assay: Selectivity index from MTT IC50s; type: cell-based, human; conditions: for Selectivity index, IC50 (non-prostate) / IC50 (prostate): mean IC50 MRC-9 and HEK-293 versus mean IC50 prostate cancer cell lines plus PNT2; for Selectivity index, IC50 (non-prostate) / IC50 (prostate) / Selectivity index, IC50 (non-cancer) / IC50 (cancer): MTT; for Selectivity index, IC50 (non-cancer) / IC50 (cancer): mean IC50 non-cancer cell lines versus mean IC50 cancer cell lines
Description: as §3, with “Next, SAR analysis was performed to identify the structural elements that are beneficial for anticancer activity of the fascaplysin-related molecules. Considering the complex and heterogeneous nature of tumors even within the same patient, we used calculated mean IC50 values of each drug in all prostate cancer cells for further analysis (Figure 2A). To identify the drug candidates with the highest therapeutic potential, the selectivity index (SI) was calculated as mean IC50 in non-cancer cells versus mean IC50 in cancer cells (Figure 2B), or as a mean IC50 in non-cancer (MRC-9 and HEK293) cells versus mean IC50 in prostate cells (cancer PC-3, 22Rv1, DU145, LNCaP and non-cancer PNT2 cells) (Figure 2C). Finally, to estimate the effects on cellular metabolism, we compared the activity evaluated by using trypan blue assay versus MTT assay (Figure 2D). Effect” for “Effect”, “2-4” for “2–4”, “F200PRO” left out

[13] = test system: double-stranded calf thymus DNA; assay: Thiazole orange displacement (DNA intercalation) assay; type: binding; conditions: 1 µM calf thymus DNA base pairs, 2 µM thiazole orange; 7 min at room temperature; mean ± SD
Description: DNA intercalation activity of the compounds was calculated as an ability to displace thiazole orange (TO) from the double-stranded DNA. For this experiment, a mixture (100 µL) containing 1 µM of double-stranded calf thymus DNA (recalculated as a concentration of base pairs) and 2 µM of thiazole orange (TO) solved in water was prepared. Then, the investigated compounds were added up to final concentrations of 0.39–25 µM; DMSO concentration in the samples was <0.02%. Propidium iodide (PI, positive control) was added up to final concentrations of 0.039–2.5 uM. After 7 min of incubation at room temperature, TO fluorescence was monitored using a multimodal plate reader TECAN Spark (Tecan Group Ltd., Männedorf Switzerland) at the excitation λ = 480 nm; fluorescence was recorded at λ = 530 nm. The bandwidth was 10 nm. The concentration of the drug that caused a decrease in TO fluorescence by 50% (EC50) was determined by approximating the experimental data using a non-linear regression algorithm and calculated using the GraphPad Prism software v.9.1.1 (GraphPad Software, San Diego, CA, USA).

| IC50 [1] | IC50 [2] | IC50 [3] | IC50 [4] | IC50 [8] | Cell cycle arrest (at IC50) [9] | % of sub-G1 apoptotic cells (at IC50) [10] | IC50 [11] | EC50 [13] | SMILES | IC50 [5] | IC50 [6] | IC50 [7] | Selectivity index, IC50 (non-prostate) / IC50 (prostate) [12] | Selectivity index, IC50 (non-cancer) / IC50 (cancer) [12] | Selectivity index (SI), for Figure 2B,C ([12]; both SI definitions (Figure 2B,C)) |
| --- | --- | --- | --- | --- | --- | --- | --- | --- | --- | --- | --- | --- | --- | --- | --- |
| 5290 ± 132 nM | 4150 ± 340 nM | 6910 ± 650 nM | 6510 ± 2320 nM | 7430 ± 850 nM | No | 23.6±1.2% | 5720 nM | – | O=C1c2cc(Br)ccc2-[n+]2ccc3c([nH]c4c(Cl)cc(Cl)cc43)c21.[Cl-] [Compound 14, 12,13-dihydro-2-bromo-9,11-dichloro-13-oxopyrido[1,2-a:3,4-b’]diindol-5-ium chloride] | 2750 ± 1740 nM | > 50000 nM | 2610 ± 429 nM | 5.14 | 3.23 | – |
| 3400 ± 1890 nM | 529 ± 69 nM | 1900 ± 634 nM | 349 ± 81 nM | 260 ± 54 nM | – | 8.83±0.7% | 1550 nM | 1360 ± 30 nM | O=C1c2cc(Br)ccc2-[n+]2ccc3c([nH]c4ccccc43)c21.[Cl-] [Compound 4, 12,13-dihydro-2-bromo-13-oxopyrido[1,2-a:3,4-b’]diindol-5-ium chloride] | 820 ± 76 nM | 4270 ± 662 nM | 1100 ± 74 nM | 1.92 | 1.34 | – |
| 564 ± 98 nM | 271 ± 46 nM | 2370 ± 450 nM | 611 ± 47 nM | 375 ± 90 nM | – | 13.4±0.92% | 950 nM | 1030 ± 30 nM | CCc1c[n+]2c(c3[nH]c4ccccc4c13)C(=O)c1ccccc1-2.[Cl-] [Compound 17, 12,13-dihydro-7-ethyl-13-oxopyrido[1,2-a:3,4-b’]diindol-5-ium chloride] | 490 ± 90 nM | 1450 ± 645 nM | 700 ± 211 nM | 1.25 | 0.92 | – |
| 391 ± 84 nM | 185 ± 39 nM | 491 ± 68 nM | 141 ± 58 nM | 172 ± 74 nM | – | 7±1.4% | 300 nM | 1160 ± 20 nM | O=C1c2ccccc2-[n+]2cc(-c3ccccc3)c3c([nH]c4ccccc43)c21.[Cl-] [Compound 16, 12,13-dihydro-7-phenyl-13-oxopyrido[1,2-a:3,4-b’]diindol-5-ium chloride] | 434 ± 21 nM | 596 ± 110 nM | 538 ± 69 nM | 1.73 | 1.73 | – |
| 3670 ± 200 nM | 550 ± 71 nM | 319 ± 75 nM | 171 ± 35 nM | 80 ± 4 nM | – | 6.3±0.906% | 1180 nM | 2140 ± 100 nM | O=C1c2ccccc2-[n+]2ccc3c([nH]c4ccc(I)cc43)c21.[Cl-] [Compound 7, 12,13-dihydro-9-iodo-13-oxopyrido[1,2-a:3,4-b’]diindol-5-ium chloride] | 145 ± 66 nM | 924 ± 132 nM | 809 ± 164 nM | 0.89 | 0.53 | < 1 |
| 2670 ± 140 nM | 1590 ± 514 nM | 2240 ± 890 nM | 2240 ± 810 nM | 2030 ± 609 nM | – | 14.2±0.567% | 2180 nM | 380 ± 20 nM | Cc1cc2c([nH]c3ccccc32)c2[n+]1-c1ccccc1C2=O.[Cl-] [Compound 19, 12,13-dihydro-6-methyl-13-oxopyrido[1,2-a:3,4-b’]diindol-5-ium chloride] | 3250 ± 795 nM | 2980 ± 930 nM | 1820 ± 387 nM | 1.00 | 1.23 | – |
| 17800 ± 1940 nM | 500 ± 67 nM | 1270 ± 206 nM | 460 ± 76 nM | 482 ± 91 nM | – | 3.63±0.844% | 5010 nM | 2010 ± 10 nM | O=C1c2ccccc2-[n+]2ccc3c([nH]c4cc(Br)ccc43)c21 [Compound 5, 10-Bromofascaplysin] | 302 ± 90 nM | 20300 ± 5400 nM | 649 ± 78 nM | 2.57 | 1.41 | – |
